Values quoted from earlier work in US20070110909A1, “Reduction or elimination of microbial growth and biofouling of salted wet biomass byproducts” (priority 2005, published 2007).

What was measured:
animal tests = conditions: birth defects in rats
rats, mice and hamsters = conditions: fore-stomachs of rats

Structure (SMILES)	toxic effects in animal tests (animal tests)	tumors in animals (rats, mice and hamsters)
Cc1cc(C(C)(C)C)c(O)c(C(C)(C)C)c1 [BHT, Butylated hydroxytoluene]	caused liver cancer and lung tumors, increased blood cholesterol, reduced growth rates and body weight	–
COc1ccc(O)c(C(C)(C)C)c1 [BHA, Butylated hydroxyanisole]	–	caused cancerous tumors
